Source: patent publication US4629723A, “Potent thymopentin analogs” (Ortho Pharmaceutical Corporation, priority 1984, dated 1986)
Non-standard residues stand in square brackets, D forms with d. Residues, ends and D or L forms follow the SMILES beside them. No end group written: not given here. Aib = CC(C)(N)C(=O)O

Columns and labels:
intact CEM cell = experiment: Cyclic-GMP assay; format: cell-based, human; details: for Concentration of c-GMP Produced: CEM cells, 4-5 min, 37° C.; for Result on the cyclic-GMP assay in words: in comparison with thymopentin
Description: This biological activity is evidenced by an assay measuring induction of cyclic-GMP production in a human T-cell line in comparison with thymopoietin. The induction of c-GMP production by a test peptide in this assay indicates the ability of the test peptide to bind to the thymopoietin receptor site on the cell and induce thymopoietin-like biological activity. […] Because of the expense of preparing peptides and the rapid degradation of peptides often observed in living systems, peptides such as those herein which have increased potency are greatly prized.
This assay measures the ability of the test peptide to bind to the cell membrane receptor of the intact CEM cell and selectively stimulate production of cyclic-GMP, as does thymopoietin itself.
The CEM cell line was obtained from the American Type Culture Collection and was cultured in RPMI-1640 medium supplemented with 10% heat-inactivated fetal bovine serum, 10% heat-inactivated horse serum, 2 mM L-glutamine, and 50 µg/ml gentamycin at 37° C. in a humid atmosphere containing 5 percent CO2, to a final density of 3-4×10^6 cells/ml. At this concentration, the cells were in the early stationary phase of the growth curve and were judged greater than 90% viable by trypan blue exclusion. The cells were grown for four days and harvested. After harvesting, the cells were washed three times in PBS and were resuspended in RPMI-1640 medium at a concentration of 3.12×10^7 cells/ml. After the cells had been allowed to equilibrate at 37° C. for 30 min, various concentrations of the test peptides were added in a volume of 25 μl of medium to 1 ml of cells, the initial concentration of test compound added being selected to yield the desired final concentration of test peptide in the medium. The test peptide was mixed instantly with the cell suspension. The incubation was allowed to proceed in a shaking water bath at 37° C. for 4-5 min and was then terminated by addition of ice-cold trichloroacetic acid (10%; 1 ml).
The cells in TCA were then homogenized and sonicated to release cyclic nucleotide. The resulting suspension was centrifuged at 3000 g for 20 min at 4° C. and the resulting precipitate was dissolved in 0.1N NaOH and sonicated for a further 30 minutes, after which the protein content was determined by the method of Cadman, et al., Anal. Biochem., 96, 21-23 (1979). The TCA was removed from the supernatant fraction by extracting four times with 5 ml of water-saturated diethyl ether. After the final extraction, the remaining traces of ether were removed from the supernatant fraction by heating it for 10 min in a 50° C. water bath. After lyophilization of the extracted supernatant fraction, it was reconstituted in 50 mM acetate buffer, ph 6.2, for radioimmunoassay of cyclic nucleotide using the assay kit NEX-133, New England Nuclear, Boston, MA 02113.
A conventional competition radioimmunoassay against radio labelled cyclic GMP was conducted to determine the amount of cyclic GMP induced by each concentration of test peptide. Results are shown in FIG. 1 and in the following table, in which representative subject peptides have been assayed in comparison with thymopentin (designated "TP-5") and a "nonsense" peptide H-ASP-ARG-TYR-LYS-VAL-OH.

[1] = system: isolated thymopoietin cell surface receptor protein from CEM cells; details: for Displacement of 125I-TP relative to that caused by thymopoietin self-displacement: at equivalent concentrations, 2.3×10^-10 M 125I-TP, 4 μg receptor protein, with TP 37-45 nonapeptide, 12 h; for Displacement of 125I-TP, in words: comparison peptides, competition experiments
[2] = Concentration of Peptide 10^0 μg/ml
[3] = Concentration of Peptide 10^1 μg/ml
[4] = Concentration of Peptide 10^3 μg/ml
[5] = Concentration of Peptide 10^4 μg/ml

## CC(C)[C@H](NC(=O)[C@H](CC(=O)O)NC(=O)[C@@H]1CCCN1C(=O)[C@@H](N)CCCNC(=N)N)C(=O)N[C@@H](Cc1ccccc1)C(=O)O [H--ARG--PRO--ASP--VAL--PHE--OH, Arginyl-Prolyl-Aspartyl-Valyl-Phenylalanine] (H-RPDVF-OH)
Intact CEM cell; [2]
  Concentration of c-GMP Produced: 0 picomoles/ml
Intact CEM cell; [3]
  Concentration of c-GMP Produced: 12 picomoles/ml
[1]
  Displacement of 125I-TP relative to that caused by thymopoietin self-displacement: at least 50%

## CC(C)[C@H](NC(=O)[C@H](CCCCN)NC(=O)[C@H](Cc1ccc(O)cc1)NC(=O)[C@H](CCCNC(=N)N)NC(=O)[C@@H](N)CC(=O)O)C(=O)O [H--ASP--ARG--TYR--LYS--VAL--OH, H-ASP-ARG-TYR-LYS-VAL-OH, reference compound] (H-DRYKV-OH)
Intact CEM cell; [4]
  Concentration of c-GMP Produced: 0 picomoles/ml
Intact CEM cell; [5]
  Concentration of c-GMP Produced: 0 picomoles/ml
Intact CEM cell; Concentration of Peptide 10^5 μg/ml
  Concentration of c-GMP Produced: 0 picomoles/ml

## CC(C)[C@H](NC(=O)[C@H](CC(=O)O)NC(=O)[C@H](CCCCN)NC(=O)[C@@H](N)CCCNC(=N)N)C(=O)N[C@@H](Cc1c[nH]cn1)C(=O)O [H-ARG-LYS-ASP-VAL-HIS-OH, Arginyl-Lysyl-Aspartyl-Valyl-Histidine] (H-RKDVH-OH)
Intact CEM cell; [2]
  Concentration of c-GMP Produced: 0 picomoles/ml
Intact CEM cell; [3]
  Concentration of c-GMP Produced: 9 picomoles/ml
[1]
  Displacement of 125I-TP relative to that caused by thymopoietin self-displacement: at least 50%

## CC(C)[C@H](NC(=O)[C@H](CC(=O)O)NC(=O)[C@H](CCCCN)NC(=O)[C@@H](N)CCCNC(=N)N)C(=O)N[C@@H](Cc1ccccc1)C(=O)O [H-ARG-LYS-ASP-VAL-PHE-OH, Arginyl-Lysyl-Aspartyl-Valyl-Phenylalanine] (H-RKDVF-OH)
Intact CEM cell; [2]
  Concentration of c-GMP Produced: 6 picomoles/ml
Intact CEM cell; [3]
  Concentration of c-GMP Produced: 9 picomoles/ml
[1]
  Displacement of 125I-TP relative to that caused by thymopoietin self-displacement: at least 50%

## CC(C)[C@H](NC(=O)[C@H](CC(=O)O)NC(=O)[C@H](CCCCN)NC(=O)[C@@H](N)CCCNC(=N)N)C(=O)N[C@@H](Cc1c[nH]c2ccccc12)C(N)=O [H-ARG-LYS-ASP-VAL-TRP-NH2, Arginyl-Lysyl-Aspartyl-Valyl-Tryptophan amide] (H-RKDVW-NH2)
Intact CEM cell
  Result on the cyclic-GMP assay in words: superior results
[1]
  Displacement of 125I-TP relative to that caused by thymopoietin self-displacement: at least 50%

## CC(C)[C@H](NC(=O)[C@H](CC(=O)O)NC(=O)[C@H](CCCCN)NC(=O)[C@@H](N)CCCNC(=N)N)C(=O)N[C@@H](Cc1c[nH]c2ccccc12)C(=O)O [H-ARG-LYS-ASP-VAL-TRP-OH, Arginyl-Lysyl-Aspartyl-Valyl-Tryptophan] (H-RKDVW-OH)
Intact CEM cell
  Result on the cyclic-GMP assay in words: superior results
[1]
  Displacement of 125I-TP relative to that caused by thymopoietin self-displacement: at least 50%

## CC(=O)N[C@@H](CCCNC(=N)N)C(=O)NC(C)(C)C(=O)N[C@@H](CC(=O)O)C(=O)N[C@H](C(=O)N[C@@H](Cc1ccccc1)C(N)=O)C(C)C [N-α-acetyl-ARG-AIB-ASP-VAL-PHE-NH2, Acetyl-Arginyl-α-Aminoisobutyryl-Aspartyl-Valyl-Phenylalaminamide] (Ac-R[Aib]DVF-NH2)
Intact CEM cell
  Result on the cyclic-GMP assay in words: superior results

## CC(=O)N[C@@H](CCCNC(=N)N)C(=O)N1CCC[C@H]1C(=O)N[C@@H](CC(=O)O)C(=O)N[C@H](C(=O)N[C@@H](Cc1ccccc1)C(N)=O)C(C)C [N-α-acetyl-ARG-PRO-ASP-VAL-PHE-NH2, Acetyl-Arginyl-Prolyl-Aspartyl-Valyl-Phenylalanine-amide] (Ac-RPDVF-NH2)
Intact CEM cell
  Result on the cyclic-GMP assay in words: superior results

## CC(=O)N[C@@H](CCCNC(=N)N)C(=O)N1CCC[C@H]1C(=O)N[C@@H](CC(=O)O)C(=O)N[C@H](C(=O)N[C@@H](Cc1ccccc1)C(=O)O)C(C)C [N-α-acetyl-ARG-PRO-ASP-VAL-PHE-OH, N^α -Acetyl-Arginyl-Prolyl-Aspartyl-Valyl-Phenylaline] (Ac-RPDVF-OH)
Intact CEM cell; [2]
  Concentration of c-GMP Produced: 7 picomoles/ml
Intact CEM cell; [3]
  Concentration of c-GMP Produced: 15 picomoles/ml

## CC(C)[C@H](NC(=O)[C@H](CC(=O)O)NC(=O)[C@H](CCCCN)NC(=O)[C@@H](N)CCCN=C(N)N)C(=O)N[C@@H](Cc1ccc(O)cc1)C(=O)O [TP-5, H--ARG--LYS--ASP--VAL--TYR--OH, reference compound] (H-RKDVY-OH)
Intact CEM cell; [2]
  Concentration of c-GMP Produced: 0 picomoles/ml
Intact CEM cell; [3]
  Concentration of c-GMP Produced: 4.5 picomoles/ml
Intact CEM cell; Concentration of Peptide 10^2 μg/ml
  Concentration of c-GMP Produced: 9 picomoles/ml
Intact CEM cell; [4]
  Concentration of c-GMP Produced: 12 picomoles/ml
Intact CEM cell; [5]
  Concentration of c-GMP Produced: 14 picomoles/ml

## C[C@H](N)C(=O)NCC(=O)N[C@H]1CSSC[C@@H](C(=O)O)NC(=O)[C@H](CO)NC(=O)[C@H]([C@@H](C)O)NC(=O)[C@H](Cc2ccccc2)NC(=O)[C@H]([C@@H](C)O)NC(=O)[C@H](CCCCN)NC(=O)[C@H](Cc2c[nH]c3ccccc23)NC(=O)[C@H](Cc2ccccc2)NC(=O)[C@H](Cc2ccccc2)NC(=O)[C@H](CC(N)=O)NC(=O)[C@H](CCCCN)NC1=O [somatostatin]
[1]
  Displacement of 125I-TP, in words: no detectable displacement

## N^α -Acetyl-Arginyl-3,4-dehydro-Prolyl-Aspartyl-Valyl-Tyrosineamide
Intact CEM cell
  Result on the cyclic-GMP assay in words: superior results

## adrenocorticotropic hormone (SYSMEHFRWGKPVGKKRRPVKVYPNGAEDESAEAFPLEF; Corticotropin; UniProt P01189 138-176, looked up) [ACTH]
[1]
  Displacement of 125I-TP, in words: no detectable displacement

## corticotropin-releasing factor (SEEPPISLDLTFHLLREVLEMARAEQLAQQAHSNRKLMEII; ends and bridges not checked; UniProt P06850 154-194, looked up) [CRF]
[1]
  Displacement of 125I-TP, in words: no detectable displacement

## facteur thymique serique [FTS]
[1]
  Displacement of 125I-TP, in words: no detectable displacement

## growth hormone
[1]
  Displacement of 125I-TP, in words: no detectable displacement

## ubiquitin
[1]
  Displacement of 125I-TP, in words: no detectable displacement

## β-endorphin (YGGFMTSEKSQTPLVTLFKNAIIKNAYKKGE; Beta-endorphin; UniProt P01189 237-267, looked up)
[1]
  Displacement of 125I-TP, in words: no detectable displacement
